In patent publication US9169252B2 (BRISTOL-MYERS SQUIBB COMPANY, priority 2014, dated 2015):
Like-named read-outs stand apart in the source and are kept apart here.

How the values were obtained:
IRAK4 = IRAK4 (Homo sapiens (Human), UniProt Q9NWZ3); test: IRAK4 Inhibition Assay; type: biochemical; details: ATP 500 μM, read-out: IRAK4 IC50
How it was run: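 IRAK4 combined with fluorescent substrate and compounds, reacted 60 min at room temperature, stopped with 35 mM EDTA. Substrate and phosphorylated product separated electrophoretically on a Caliper LabChip 3000 mobility-shift reader.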

[1] = tested on: TLR2 induced IL-6 in peripheral blood mononuclear cells (PBMCs); test: PBMC TLR2 Induced IL-6 Assay; type: cell-based, human; details: IL-6 by ELISA; for IC50: read-out: Cell IC50; for EC50: read-out: Cell EC50
How it was run: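 Lipoteichoic acid at 10 µg/ml served as TLR2 stimulus for 5 hours, following a 30-minute compound pretreatment at 37° C. Cells were Ficoll-isolated human PBMCs, 250000 cells/well, cultured in RPMI plus 10% heat-inactivated FCS.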

[2] = Homo sapiens, PBMC, human PBMCs, lipoteichoic acid stimulated
[3] = Homo sapiens, PBMC, PBMC TLR2 Induced IL-6 Assay, lipoteichoic acid stimulation

IRAK4, sequence (Q9NWZ3 whole entry, species assumed): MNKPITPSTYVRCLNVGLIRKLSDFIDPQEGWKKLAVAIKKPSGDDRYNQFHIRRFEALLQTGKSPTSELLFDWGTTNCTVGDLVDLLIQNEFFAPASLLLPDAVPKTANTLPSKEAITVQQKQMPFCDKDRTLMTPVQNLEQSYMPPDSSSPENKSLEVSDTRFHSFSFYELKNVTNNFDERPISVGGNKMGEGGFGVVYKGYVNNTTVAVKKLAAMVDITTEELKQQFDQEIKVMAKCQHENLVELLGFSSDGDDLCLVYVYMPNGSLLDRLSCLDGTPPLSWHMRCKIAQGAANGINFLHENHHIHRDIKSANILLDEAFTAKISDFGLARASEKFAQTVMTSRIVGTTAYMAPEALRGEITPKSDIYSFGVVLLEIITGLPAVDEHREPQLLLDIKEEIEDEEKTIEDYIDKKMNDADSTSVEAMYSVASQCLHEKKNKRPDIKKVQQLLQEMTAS

Compound	IC50 (IRAK4; IRAK4 0.6 nM)	IC50 [1, 2]	IC50 (IRAK4; IRAK4 Inhibition Assay)	EC50 [1, 3]	further results
CC[C@@H](F)CNc1cc(-n2ncc3cc(Cl)cnc32)ncc1C(=O)NC[C@@H](F)C(C)(C)O [Example 602]	9.3 nM	233 nM	–	–	–
CC(C)(O)[C@H](F)CNC(=O)c1cnc(-n2ccc3cc(C#N)cnc32)cc1N[C@@H]1COC[C@H]1O [Example 455]	2.2 nM	–	–	–	EC50 ([1]; human PBMCs, lipoteichoic acid stimulated): 72 nM
CC(C)(O)[C@H](F)CNC(=O)c1cnc(-n2ncc3cc(C#N)cnc32)cc1NC12CC3CC(CC(O)(C3)C1)C2 [Example 624]	2.1 nM	68 nM	–	–	–
CC(C)Nc1cc(-n2ncc3cc(Cl)cnc32)ncc1C(=O)N[C@H]1CC[C@H](C(C)(C)O)CC1 [Example 150, 6-(5-chloro-1H-pyrazolo[3,4-b]pyridin-1-yl)-N-((trans)-4-(2-hydroxypropan-2-yl)cyclohexyl)-4-(isopropylamino)nicotinamide]	–	–	9 nM	593 nM	–
Cc1cc(Nc2cc(-n3ncc4cc(C#N)cnc43)ncc2C(=O)NC[C@@H](F)C(C)(C)O)[nH]n1 [Example 405]	6.2 nM	561 nM	–	–	–
COc1cnc(N2CC[C@@H](Nc3cc(-n4ncc5cc(C#N)cnc54)ncc3C(=O)NC[C@@H](F)C(C)(C)O)C2)nc1 [Example 536]	8.1 nM	–	–	–	EC50 [1, 2]: 189 nM
CNC(=O)[C@H]1CC[C@H](NC(=O)c2cnc(-n3ncc4cc(C#N)cnc43)cc2N[C@@H](C)CF)CC1 [Example 122, 6-(5-cyano-1H-pyrazolo[3,4-b]pyridin-1-yl)-4-(((S)-1-fluoropropan-2-yl)amino)-N-((1r,4S)-4-(methylcarbamoyl)cyclohexyl)nicotinamide]	–	–	16 nM	501 nM	–
CC(C)(O)[C@H](F)CNC(=O)c1cnc(-n2ncc3cc(F)cnc32)cc1Nc1cnn(CC(F)F)c1 [Example 384]	–	–	2.3 nM	–	IC50 [1, 3]: 24 nM
CC(C)Nc1cc(-n2ncc3cc(C#N)cnc32)ncc1C(=O)Nc1ccc(CN2CCOCC2)cc1 [Example 226]	–	–	6.8 nM	248 nM	–
CC(C)(O)[C@H](F)CNC(=O)c1cnc(-n2ccc3cc(C#N)cnc32)cc1NC1CCCC(CO)C1 (single isomer, unassigned) [Example 445]	5.3 nM	–	–	–	EC50 [1, 2]: 108 nM
CC(C)(O)[C@H](F)CNC(=O)c1cnc(-n2ccc3cc(C#N)cnc32)cc1NCCC(F)(F)F [Example 425]	1.8 nM	–	–	–	EC50 [1, 2]: 154 nM
CS(=O)(=O)[C@H]1CC[C@H](NC(=O)c2cnc(-n3ccc4cc(C#N)cnc43)cc2NC2CCOCC2)CC1 [Example 103, 6-(5-Cyano-1H-pyrrolo[2,3-b]pyridin-1-yl)-N-((trans)-4-(methylsulfonyl)cyclohexyl)-4-((tetrahydro-2H-pyran-4-yl)amino)nicotinamide]	–	–	3.5 nM	125 nM	–
CC(C)(O)[C@H](F)CNC(=O)c1cnc(-n2ncc3cc(Cl)cnc32)cc1Nc1cnn(CC(F)(F)F)c1 [Example 354]	–	–	1.9 nM	–	IC50 [1, 3]: 115 nM
CNC(=O)[C@H]1CC[C@H](NC(=O)c2cnc(-n3ccc4cc(C#N)cnc43)cc2NC2CC2)CC1 [Example 85, 6-(5-cyano-1H-pyrrolo[2,3-b]pyridin-1-yl)-4-(cyclopropylamino)-N-((trans)-4-(methylcarbamoyl)cyclohexyl) nicotinamide]	–	–	13.3 nM	523 nM	–
CC(C)Nc1cc(-n2ccc(-c3ccnnc3)n2)ncc1C(=O)NC[C@@H](F)C(C)(C)O [Example 168, (R)—N-(2-Fluoro-3-hydroxy-3-methylbutyl)-4-(isopropylamino)-6-(3-(pyridazin-4-yl)-1H-pyrazol-1-yl)nicotinamide]	–	–	13.1 nM	305 nM	–
CC(C)(O)c1cnc(Nc2cc(-n3ncc4cc(C#N)cnc43)ncc2C(=O)NC[C@@H](F)C(C)(C)O)s1 [Example 521, (R)-6-(5-Cyano-1H-pyrazolo[3,4-b]pyridin-1-yl)-N-(2-fluoro-3-hydroxy-3-methylbutyl)-4-((5-(2-hydroxypropan-2-yl)thiazol-2-yl)amino)nicotinamide]	3.5 nM	–	–	–	EC50 [1, 2]: 460 nM
CC(C)(O)[C@H](F)CNC(=O)c1cnc(-n2ccc3cc(C(N)=O)cnc32)cc1NC1CCC1 [Example 124, (R)-1-(4-(Cyclobutylamino)-5-((2-fluoro-3-hydroxy-3-methylbutyl)carbamoyl)pyridin-2-yl)-1H-pyrrolo[2,3-b]pyridine-5-carboxamide]	–	–	4.8 nM	119 nM	–
CC(C)(O)[C@H](F)CNC(=O)c1cnc(-n2ncc3cc(C#N)cnc32)cc1NCCNC(=O)OC(C)(C)C(F)(F)F [Example 587]	13.8 nM	298 nM	–	–	–
CC(C)Nc1cc(-n2ccc3cc(C#N)cnc32)ncc1C(=O)NC1CCC2(CC1)NC(=O)NC2=O (centres unmarked) [Example 183, 6-(5-Cyano-1H-pyrrolo[2,3-b]pyridin-1-yl)-N-(2,4-dioxo-1,3-diazaspiro[4.5]decan-8-yl)-4-(isopropylamino)nicotinamide]	–	–	4.1 nM	179 nM	–
CC(C)Nc1cc(-n2ncc3cc(C#N)cnc32)ncc1C(=O)N[C@@H]1CC[C@@H](C(C)(C)O)OC1 [Example 296]	–	–	7.1 nM	–	IC50 [1, 3]: 412 nM

Compound	IC50 (IRAK4; IRAK4 0.6 nM)	IC50 [1, 2]	IC50 (IRAK4; IRAK4 Inhibition Assay)	EC50 [1, 3]	further results
CC(C)(O)[C@H](F)CNC(=O)c1cnc(-n2ncc3cc(C#N)cnc32)cc1NCC(F)F [Example 574]	15.3 nM	258 nM	–	–	–
CC(C)(O)[C@H](F)CNC(=O)c1cnc(-n2ncc3cc(F)cnc32)cc1NC1CCCOC1 (some centres unmarked) [Example 547]	16.6 nM	591 nM	–	–	EC50 [1, 2]: 65 nM
CC(C)(O)[C@H](F)CNC(=O)c1cnc(-n2ncc3cc(F)cnc32)cc1NC1CCOCC1 [Example 562]	12.5 nM	–	–	–	EC50 [1, 2]: 255 nM
CC(C)Nc1cc(-n2ncc3cc(C#N)cnc32)ncc1C(=O)NCCc1c[nH]cn1 [Example 311]	–	–	4.7 nM	–	IC50 [1, 3]: 347 nM
CC(F)[C@H](C)Nc1cc(-n2ncc3cc(C#N)cnc32)ncc1C(=O)NC[C@@H](F)C(C)(C)O (single isomer, unassigned) [Example 202]	–	–	10.6 nM	131 nM	–
CC(CCF)Nc1cc(-n2ncc3cc(C#N)cnc32)ncc1C(=O)NC[C@@H](F)C(C)(C)O (mixture of isomers) [Example 205]	–	–	7 nM	240 nM	–
CCNc1cc(-n2ccc3cc(C#N)cnc32)ncc1C(=O)NC[C@@H](F)C(C)(C)O [Example 4, (R)-6-(5-cyano-1H-pyrrolo[2,3-b]pyridin-1-yl)-4-(ethylamino)-N-(2-fluoro-3-hydroxy-3-methylbutyl) nicotinamide]	–	–	1.4 nM	15 nM	IC50 [1, 3]: 157 nM
C[C@@H](CF)Nc1cc(-n2ccc3cncnc32)ncc1C(=O)NC[C@@H](F)C(C)(C)O [Example 116, N—((R)-2-fluoro-3-hydroxy-3-methylbutyl)-4-(((S)-1-fluoropropan-2-yl)amino)-6-(7H-pyrrolo[2,3-d]pyrimidin-7-yl)nicotinamide]	–	–	6.2 nM	133 nM	–
CS(=O)(=O)NCCNC(=O)c1cnc(-n2ccc3cc(C#N)cnc32)cc1NC1CC1 [Example 453]	4.4 nM	326 nM	–	–	EC50 [1, 2]: 213 nM
CC[C@@H](CO)Nc1cc(-n2ncc3cc(Cl)cnc32)ncc1C(=O)NC[C@@H](F)C(C)(C)O [Example 589]	4.1 nM	361 nM	–	–	–
C[C@@H](Nc1cc(-n2ccc3cc(C#N)cnc32)ncc1C(=O)NC[C@@H](F)C(C)(C)O)C1CC1 [Example 450]	2.8 nM	438 nM	–	–	EC50 [1, 2]: 268 nM
CC(C)(O)[C@H](F)CNC(=O)c1cnc(-n2ccc3cc(C#N)cnc32)cc1NC1CCC1 [Example 6, (R)-6-(5-cyano-1H-pyrrolo[2,3-b]pyridin-1-yl)-4-(cyclobutylamino)-N-(2-fluoro-3-hydroxy-3-methylbutyl) nicotinamide]	–	–	1 nM	243 nM	IC50 [1, 3]: 243 nM
CC(C)(O)[C@H]1CC[C@H](NC(=O)c2cnc(-n3ncc4cc(C#N)cnc43)cc2NC2COC2)CC1 [Example 555]	7 nM	47 nM	–	–	–
CC(C)Nc1cc(-n2ncc3cc(C#N)cnc32)ncc1C(=O)NC[C@@H](F)C(C)(C)O [Example 133, (R)-6-(5-Cyano-1H-pyrazolo[3,4-b]pyridin-1-yl)-N-(2-fluoro-3-hydroxy-3-methylbutyl)-4-(isopropylamino)nicotinamide]	–	–	2.6 nM	120 nM	–
CC1(Nc2cc(-n3ncc4cc(C#N)cnc43)ncc2C(=O)NC[C@@H](F)C(C)(C)O)CC1 [Example 292]	–	–	2.7 nM	–	IC50 [1, 3]: 456 nM
CC(C)Nc1cc(-n2ncc3cc(C#N)cnc32)ncc1C(=O)NCCC(C)NS(C)(=O)=O (centres unmarked) [Example 265]	–	–	2.4 nM	–	IC50 ([1]; PBMC TLR2 Induced IL-6 Assay, lipoteichoic acid stimulation): 241 nM
CC(C)COC(=O)NCc1cnc2c(ccn2-c2cc(NC(C)C)c(C(=O)NC[C@@H](F)C(C)(C)O)cn2)c1 [Example 498]	5.7 nM	248 nM	–	–	–
CC(C)Nc1cc(-n2ccc3cc(CNC(=O)CC4CCOCC4)cnc32)ncc1C(=O)NC[C@@H](F)C(C)(C)O [Example 518]	14 nM	94 nM	–	–	–
CC(C)Nc1cc(-n2ncc3cc(C#N)cnc32)ncc1C(=O)N[C@H]1CC[C@H](NS(C)(=O)=O)CC1 [Example 166, 6-(5-cyano-1H-pyrazolo[3,4-b]pyridin-1-yl)-4-(isopropylamino)-N-((trans)-4-(methylsulfonamido)cyclohexyl)nicotinamide]	–	–	4.6 nM	192 nM	–
